Source: US9642819B2, “Low dosage serotonin 5-HT2A receptor agonist to suppress inflammation” (BOARD OF SUPERVISORS OF LOUISIANA STATE UNIVERSITY AND …, priority 2008, dated 2017)
“Also recorded” adds a separate entry of the source.

Assays:
[1] = system: nitrite accumulation in C6 glioma cells; conditions: cocktail of TNF-α, read-out: IC50 for partial block of LPS and cytokine stimulated nitrite accumulation; cited from earlier work
[2] = system: ICAM-1, VCAM-1, and IL-6 gene expression; assay: TNF-α induced proinflammatory gene expression (ICAM-1, VCAM-1, IL-6) by Q-RT-PCR in RASM cells; type: cell-based, rat; conditions: for effect of receptor antagonist on the inhibitory effects of (R)-DOI: antagonist 100 nM 30 minutes prior to 1 nM (R)-DOI, then TNF-α
Protocol: (§1) RASM cells and treatment. Rat aortic smooth muscle (RASM) cells were isolated from adult 180 g male Sprague-Dawley rats and provided by the Cell and Molecular Core Facility in the Department of Pharmacology at LSUHSC-NO. Isolated RASM cells were grown in M-199 media containing 10% fetal bovine serum (Gibco), 100 units/mL penicillin, and 100 µg/mL streptomycin, and incubated at 37° C. in 5% CO2. Cells for all assays were used between passages 3 and 5. Prior to treatments, cells were grown in M-199 media with 10% fetal bovine serum (FBS) until 30-50% confluent. For most assays, cells were treated with (R)-DOI, or other drugs as indicated, at specific concentrations for 24 hours, followed by TNF-α (10 ng/ml) and (R)-DOI at the same pretreatment concentrations in fresh M-199 media. After another 24 hours, the cells were scraped, pelleted, and processed for RNA.
(§2) RNA isolation and Quantitative Realtime-PCR. RNA was extracted from cells using Illustra RNAspin Mini kits from GE Healthcare Life Sciences (Piscataway, N.J.) following protocols supplied by the manufacturer. First strand cDNA was generated using the ImProm-II cDNA synthesis kit (Promega) following the manufacturers protocols. Q-RT-PCR was performed using the ProbeLibrary system from Roche (Indianapolis, Ind.) in combination with the HotStart-IT probe qpcr master mix from USB Biological (Cleveland, Ohio) following manufactures protocols.
(§3) Primers were synthesized by IDT (Coralville, Iowa). ProbeLibrary probes from Roche were: U3, U74, U13, U106, U79 for 5-HT2AR, ICAM-1, VCAM-1, IL-6, and cyclophillin B, respectively. Quantitative determination of gene expression levels using a 2-step cycling protocol was performed on a MyIQ-5 Cycler (Bio-Rad, Hercules Calif.). Relative gene expression levels were calculated using the 2^[−ΔΔC(T)] method. Levels of all targets from the test samples were normalized to rat cyclophillin B expression.
(§4) To examine the effects of 5-HT2A receptor activation on TNF-α mediated proinflammatory gene expression, RASM cells were pretreated with (R)-DOI, a selective 5-HT2 receptor agonist, as described above. Dose-response curves were determined for the effects on ICAM-1, VCAM-1, and IL-6 gene expression for twelve different concentrations of (R)-DOI ranging from 0.1 pM to 100 nM, with each experiment repeated in triplicate. In FIGS. 1A-1C, the Y-axis represents a percent of TNF-α for the dose of (R)-DOI indicated on the X-axis.

ICAM-1 gene expression [3] = assay: TNF-α induced ICAM-1 gene expression in primary rat aortic smooth muscle cells; type: cell-based; conditions: for block of TNF-α induced ICAM1 gene expression at 1 nM: VCAM1 and IL6 identical
Protocol: as §1, §2, §3, §4

ICAM-1 gene expression [4] = assay: TNF-α induced ICAM-1 gene expression in rat C6 glioma cells; type: cell-based; conditions: 1 nM and 50 nM prior to TNF-α
Protocol: Experiments were conducted to analyze for the effect of 5-HT2A receptor activation on proinflammatory marker expression in other cell types. Human neuroblastoma cells (SHSY5Y) and rat glioma cells (C6) can be obtained from the American Type Culture Collection (Manassas, Va.), but were provided Purdue University. The cells were grown in DMEM+10% FBS. DMEM was made and provided by the Cell and Molecular Core of the Mentoring in Cardiovascular Biology COBRE center at LSUHSC-NO. FBS was purchased from Invitrogen (Carlsbad, Calif.). Primary rat aortic endothelial cells were prepared fresh and provided by the Cell and Molecular Core of the Mentoring in Cardiovascular Biology COBRE center at LSUHSC-NO. Cells were tested at passages 3-4. Cells were grown in endothelial cell growth medium (Cell Applications, Inc.). Primary rat bronchoaveolar macrophage cells were obtained by lung lavage from rats and used at day 3 or 4 post plating in DMEM+10% FBS.
All treatments with 5-HT2A receptor agonists occurred 1 hour prior to the addition of TNF-alpha (10 ng/ml) or LPS (100 ng or 1 mg) depending on the experiment. All RNA isolations, cDNA synthesis, QPCR gene expression assays examining ICAM1, VCAM1, and IL6, and data analysis were performed as described above in Example 1, except the primers were different for the human cell experiment. […]

[5] = system: Nitric Oxide Synthetase (NOS) activity; assay: NOS activity: nitrite levels in culture medium of RASM cells after TNF-α; type: cell-based, rat; conditions: 100 nM prior to 1 nM (R)-DOI
Protocol: Nitric Oxide Synthetase (NOS) Activity. NOS activity was determined by detection of nitrite levels in the cell culture medium following (R)-DOI/TNF-α treatments utilizing the Nitrate Detection kit from Assay Designs (Ann Arbor, Mich.) following the manufacturers protocols. Absorbances were detected at 539 nm on a […] SpectraMax M2 plate reader.
A key participant in inflammatory processes is NOS activity (Guzik et al., 2003). NOS activity can regulate NF-kB activation (Ckless et al., 2007), and cytokine pathway-activated NF-kB can transcriptionally regulate iNOS gene expression (Guo et al., 2007). To examine the effects of 5-HT2A receptor activation on this component of inflammatory mechanisms, primary RASM cells were used to examine the ability of 1 nM (R)-DOI to block TNF-α mediated increases in nitrite levels.
As an indicator of NOS activity, nitrite levels were measured in the cell culture media after treatments and are shown in FIG. 6 as % control. […] Pretreatment with 1 nM (R)-DOI for 24 hours blocked TNF-α mediated increases in nitrite accumulation (DOI+T).

[6] = system: nuclear translocation of p65; assay: Nuclear translocation of NF-κB subunit p65 in RASM cells; type: cell-based, rat; conditions: pretreatment of the 1 hour time point
Protocol: Nuclear Translocation of p65. RASM cells were grown in M-199 medium+10% FBS until 50% confluent in 8 well chamber slides. Cells were treated with 1 nM (R)-DOI for various times as indicated, and TNF-α (10 ng/ml; tumor necrosis factor alpha) added. Thirty minutes after TNF-α treatment, cells were fixed and processed with rabbit anti p65 primary and Alexafluor 488-conjugated goat secondary antibodies as described in Zerfaoui et al. (2008) (Zerfaoui et al., 2008). Fluorescent signal was visualized on a Leica DMRA2 fluorescent microscope.
Both ICAM-1 and VCAM-1 gene transcription during inflammatory processes is regulated by the transcription factor NF-κB (Collins et al., 1995). During this process, NF-κB must be activated, and then translocated from the cytoplasm to the nucleus, where it promotes gene transcription. To investigate whether 5-HT2A receptor stimulated inhibition of NF-κB activation and translocation might be a possible mechanism for blockade of proinflammatory gene expression changes, a series of immunohistochemical experiments were conducted examining p65 translocation in RASM cells. TNF-α treatment for 30 minutes caused the expected dramatic shift in localization of the p65 subunit of NF-κB from the cytoplasm to the nucleus (FIG. 7A). […]

5-HT2A receptors = 5-HT2A receptors (Homo sapiens, UniProt P28223); conditions: cited from earlier work
α1-adrenergic receptors = conditions: cited from earlier work
histamine H1 receptors = histamine H1 receptors (Homo sapiens, UniProt P35367); conditions: cited from earlier work
Chain of histamine H1 receptors (P35367 whole entry): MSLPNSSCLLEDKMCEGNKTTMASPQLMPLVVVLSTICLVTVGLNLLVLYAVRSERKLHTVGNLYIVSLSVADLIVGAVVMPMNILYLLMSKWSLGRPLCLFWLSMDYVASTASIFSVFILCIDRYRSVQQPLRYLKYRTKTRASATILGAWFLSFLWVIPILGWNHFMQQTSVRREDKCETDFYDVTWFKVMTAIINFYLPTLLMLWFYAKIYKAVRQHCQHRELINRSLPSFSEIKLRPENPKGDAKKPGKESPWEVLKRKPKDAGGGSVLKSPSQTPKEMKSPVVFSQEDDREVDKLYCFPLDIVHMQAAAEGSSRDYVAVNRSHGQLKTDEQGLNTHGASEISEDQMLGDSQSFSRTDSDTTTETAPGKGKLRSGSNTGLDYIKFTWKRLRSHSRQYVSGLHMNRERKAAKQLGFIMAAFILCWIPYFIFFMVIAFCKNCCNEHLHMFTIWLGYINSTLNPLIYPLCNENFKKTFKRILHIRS

Chain of 5-HT2A receptors (P28223 whole entry): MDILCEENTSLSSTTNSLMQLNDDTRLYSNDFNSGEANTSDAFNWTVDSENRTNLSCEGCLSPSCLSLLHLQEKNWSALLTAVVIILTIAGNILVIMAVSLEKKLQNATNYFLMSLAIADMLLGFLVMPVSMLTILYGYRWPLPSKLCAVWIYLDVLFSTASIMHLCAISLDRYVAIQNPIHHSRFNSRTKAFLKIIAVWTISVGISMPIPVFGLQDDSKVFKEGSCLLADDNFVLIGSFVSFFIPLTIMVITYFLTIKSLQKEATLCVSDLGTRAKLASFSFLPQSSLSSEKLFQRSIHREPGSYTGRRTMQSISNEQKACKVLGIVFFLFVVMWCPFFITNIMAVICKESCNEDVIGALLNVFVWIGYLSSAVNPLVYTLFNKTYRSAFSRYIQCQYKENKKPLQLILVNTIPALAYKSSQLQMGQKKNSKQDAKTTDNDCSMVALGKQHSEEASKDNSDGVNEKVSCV

## COc1cc(CC(C)N)c(OC)cc1I (racemic) [DOI, 1-(2,5-dimethoxy-4-iodophenyl)-2-aminopropane]
[1]
  IC50: 8 ± 3 nM

## CCCCCCCCCCCCCC(=O)O[C@@H]1[C@@H](C)[C@@]2(O)[C@@H](C=C(CO)C[C@]3(O)C(=O)C(C)=C[C@@H]23)[C@@H]2C(C)(C)[C@]12OC(C)=O [PMA, Phorbol 12-myristate 13-acetate, reference compound]
[2]; 100 nM prior to TNF-α, ICAM1, VCAM1, IL6
  effect on TNF-α mediated expression in the absence of (R)-DOI: blocks the effects of TNF-α; also recorded: completely block

## CC1CC(C)N1C(=O)C1C=C2c3cccc4[nH]cc(c34)CC2N(C)C1 (stereo not drawn) [LA-SS-Az, (2′S,4′S)-(+)-9,10-Didehydro-6-methylergoline-8β-(trans-2,4-dimethylazetidide)]
ICAM-1 gene expression [3]; 1 nM pretreatment
  induced gene expression blocked at 1 nM: about 50%
  block of TNF-α induced ICAM1 gene expression at 1 nM: moderately effective
ICAM-1 gene expression [3]; 50 nM pretreatment
  block of TNF-α induced ICAM1 gene expression at 50 nM: effectively blocked
ICAM-1 gene expression [4]
  effect on ICAM-1 gene expression in rat glioma cells: blocked

## COc1cc(OC)c(C(=O)CCCCN2CCC3(CC2)NC(=O)NC3=O)cc1NS(=O)(=O)c1ccc(C(F)(F)F)cc1.Cl [RS102221, reference compound]
[2]; hydrochloride
  effect of receptor antagonist on the inhibitory effects of (R)-DOI: did not block; also recorded: had no effect

## Cc1cc(NC(=O)Nc2ccc3c(ccn3C)c2)sn1 [SB204741, N-(1-Methyl-1H-indolyl-5-yl)-N″-(3-methyl-5-isothiazolyl)urea, reference compound]
[2]
  effect of receptor antagonist on the inhibitory effects of (R)-DOI: did not block; also recorded: had no effect

## CCN(CC)C(=O)[C@@H]1C=C2c3cccc4[nH]cc(c34)C[C@H]2N(C)C1 [LSD, Lysergic acid diethylamide, reference compound]
ICAM-1 gene expression [3]; 1 nM pretreatment
  block of TNF-α induced ICAM1 gene expression at 1 nM: weak to moderate effects
ICAM-1 gene expression [3]; 50 nM pretreatment
  TNF-α effect blocked at 50 nM: about 85%

## COc1ccc2c(c[n+](C)c3c4cc5c(cc4ccc23)OCO5)c1OC.[Cl-] [chelerythrine, 1,2-Dimethoxy-12-methyl[1,3]benzodioxolo[5,6-c]phenanth ridinium chloride, reference compound]
ICAM-1 gene expression [3]; inhibitor 100 nM 30 minutes prior to 1 nM (R)-DOI, then TNF-α
  effect of kinase inhibitor on (R)-DOI inhibition of TNF-α induced ICAM-1 expression: blocked the effects of TNF-α-induced gene expression; also recorded: completely inhibited
[5]
  effect of PKC inhibitor on (R)-DOI block of nitrite accumulation: completely inhibited
[6]
  effect of PKC inhibitor on (R)-DOI induced inhibition of p65 translocation: blocked

## O=C(c1ccc(F)cc1)C1CCN(CCn2c(=O)[nH]c3ccccc3c2=O)CC1 [ketanserin]
5-HT2A receptors
  selectivity for 5-HT2A receptors over 5-HT2C receptors: ~20 fold
α1-adrenergic receptors
  affinity for α1-adrenergic receptors: high affinity
Histamine H1 receptors
  potency at blocking histamine H1 receptors: equipotent

## COc1cccc([C@H](O)C2CCN(CCc3ccc(F)cc3)CC2)c1OC [M100907, R(+)-a-(2,3-dimeth-oxyphenyl)-1-[2-(4-fluorophenylethyl)]-4-pipeddine-methanol, reference compound]
[2]
  effect of receptor antagonist on the inhibitory effects of (R)-DOI: blocked the effects of (R)-DOI
[2]; listed as MDL100907
  effect of receptor antagonist on the inhibitory effects of (R)-DOI: completely blocked
